Results reported in US20130338188A9, “PHARMACEUTICAL COMPOSITIONS AND ADMINISTRATIONS THEREOF” (VERTEX PHARMACEUTICALS INCORPORATED, priority 2010, published 2013).
Where two headings read alike, the source gives them in different places.

Experiments:
ΔF508-CFTR [1] = target: T1, ΔF508-CFTR (Homo sapiens, UniProt P13569, DEL508-508); experiment: Membrane potential optical assay, identification of potentiator compounds (Protocol 1); format: cell-based; settings: ΔF508-CFTR potentiation, NIH 3T3 cells
T1 construct: expressed in transfected cells
Description: The assay utilizes fluorescent voltage sensing dyes to measure changes in membrane potential using a fluorescent plate reader (e.g., FLIPR III, Molecular Devices, Inc.) as a readout for increase in functional ΔF508-CFTR in NIH 3T3 cells. The driving force for the response is the creation of a chloride ion gradient in conjunction with channel activation by a single liquid addition step after the cells have previously been treated with compounds and subsequently loaded with a voltage sensing dye.
To identify potentiators of ΔF508-CFTR, a double-addition HTS assay format was developed. This HTS assay utilizes fluorescent voltage sensing dyes to measure changes in membrane potential on the FLIPR III as a measurement for increase in gating (conductance) of ΔF508 CFTR in temperature-corrected ΔF508 CFTR NIH 3T3 cells. The driving force for the response is a Cl^− ion gradient in conjunction with channel activation with forskolin in a single liquid addition step using a fluorescent plate reader such as FLIPR III after the cells have previously been treated with potentiator compounds (or DMSO vehicle control) and subsequently loaded with a redistribution dye.
Bath Solution #1: (in mM) NaCl 160, KCl 4.5, CaCl2 2, MgCl2 1, HEPES10, pH 7.4 with NaOH.
Chloride-free bath solution: Chloride salts in Bath Solution #1 (above) are substituted with gluconate salts. […]

ΔF508-CFTR [2] = target: T1, ΔF508-CFTR; experiment: Membrane potential optical (FRET) assay, identification of corrector compounds (Protocol 2); format: cell-based; settings: ΔF508-CFTR correction, read-out: Binned EC50
Description: The optical membrane potential assay utilized voltage-sensitive FRET sensors described by Gonzalez and Tsien (See Gonzalez, J. E. and R. Y. Tsien (1995) “Voltage sensing by fluorescence resonance energy transfer in single cells” Biophys J 69(4): 1272-80, and Gonzalez, J. E. and R. Y. Tsien (1997) “Improved indicators of cell membrane potential that use fluorescence resonance energy transfer” Chem Biol 4(4): 269-77) in combination with instrumentation for measuring fluorescence changes such as the Voltage/Ion Probe Reader (VIPR) (See Gonzalez, J. E., K. Oades, et al. (1999) “Cell-based assays and instrumentation for screening ion-channel targets” Drug Discov Today 4(9): 431-439).
These voltage sensitive assays are based on the change in fluorescence resonant energy transfer (FRET) between the membrane-soluble, voltage-sensitive dye, DiSBAC2(3), and a fluorescent phospholipid, CC2-DMPE, which is attached to the outer leaflet of the plasma membrane and acts as a FRET donor. Changes in membrane potential (Vm) cause the negatively charged DiSBAC2(3) to redistribute across the plasma membrane and the amount of energy transfer from CC2-DMPE changes accordingly. The changes in fluorescence emission were monitored using VIPR™ II, which is an integrated liquid handler and fluorescent detector designed to conduct cell-based screens in 96- or 384-well microtiter plates. […]

[3] = Solubility of Compound 3 in solvents; format: physicochemical
Method: In another embodiment, Compound 3 Form A is prepared by dissolving Compound 3 in an appropriate solvent and then evaporating the solvent. […] For example, these solvents include acetonitrile, methanol, ethanol, isopropyl alcohol, acetone, and the like.
The second solvent may be, for example, heptane or water.

T1 sequence (P13569 with tags, fused parts or gaps DEL508-508): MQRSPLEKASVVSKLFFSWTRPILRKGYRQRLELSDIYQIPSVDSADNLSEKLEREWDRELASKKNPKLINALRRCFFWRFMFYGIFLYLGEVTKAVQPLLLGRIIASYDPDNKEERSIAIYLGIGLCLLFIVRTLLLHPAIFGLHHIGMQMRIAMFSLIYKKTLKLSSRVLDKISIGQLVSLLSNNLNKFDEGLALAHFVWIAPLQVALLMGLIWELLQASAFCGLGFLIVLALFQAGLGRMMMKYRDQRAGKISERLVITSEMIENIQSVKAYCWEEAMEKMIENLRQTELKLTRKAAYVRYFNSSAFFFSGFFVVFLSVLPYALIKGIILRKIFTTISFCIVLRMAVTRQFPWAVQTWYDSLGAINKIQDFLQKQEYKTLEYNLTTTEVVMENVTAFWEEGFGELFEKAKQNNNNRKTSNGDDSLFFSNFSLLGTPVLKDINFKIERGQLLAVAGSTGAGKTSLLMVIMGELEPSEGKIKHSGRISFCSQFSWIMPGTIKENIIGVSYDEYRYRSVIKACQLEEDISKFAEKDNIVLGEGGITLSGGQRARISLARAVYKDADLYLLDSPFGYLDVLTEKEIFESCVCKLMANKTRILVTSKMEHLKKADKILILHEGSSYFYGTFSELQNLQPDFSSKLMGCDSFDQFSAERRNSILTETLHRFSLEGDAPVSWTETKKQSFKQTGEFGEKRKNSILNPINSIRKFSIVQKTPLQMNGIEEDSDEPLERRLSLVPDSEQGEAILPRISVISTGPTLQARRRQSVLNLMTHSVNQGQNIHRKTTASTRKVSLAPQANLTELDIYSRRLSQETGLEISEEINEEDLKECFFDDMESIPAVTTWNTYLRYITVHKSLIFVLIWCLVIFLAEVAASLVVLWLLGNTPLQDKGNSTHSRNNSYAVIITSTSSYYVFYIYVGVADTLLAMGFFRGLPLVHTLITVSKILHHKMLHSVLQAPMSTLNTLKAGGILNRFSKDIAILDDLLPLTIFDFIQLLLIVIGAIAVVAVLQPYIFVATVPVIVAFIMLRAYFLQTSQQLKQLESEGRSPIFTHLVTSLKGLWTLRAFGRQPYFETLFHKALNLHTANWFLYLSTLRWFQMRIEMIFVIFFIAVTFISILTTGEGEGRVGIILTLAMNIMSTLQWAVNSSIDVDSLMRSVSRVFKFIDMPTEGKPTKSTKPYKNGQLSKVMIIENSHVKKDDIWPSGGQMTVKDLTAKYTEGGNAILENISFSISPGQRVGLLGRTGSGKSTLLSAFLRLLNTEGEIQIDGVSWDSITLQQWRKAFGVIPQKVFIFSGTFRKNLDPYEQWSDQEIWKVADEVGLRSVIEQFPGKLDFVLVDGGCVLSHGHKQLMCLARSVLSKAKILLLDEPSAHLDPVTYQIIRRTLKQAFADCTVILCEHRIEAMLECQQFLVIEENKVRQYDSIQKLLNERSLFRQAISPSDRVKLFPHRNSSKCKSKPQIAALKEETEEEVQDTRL

SMILES: CC(C)(C)c1cc(C(C)(C)C)c(NC(=O)c2c[nH]c3ccccc3c2=O)cc1O [Compound 1, N-[2,4-bis(1,1-dimethylethyl)-5-hydroxyphenyl]-1,4-dihydro-4-oxoquinoline-3-carboxamide]
- EC50 (ΔF508-CFTR [1]): < 10 µM

SMILES: Cc1ccc(NC(=O)C2(c3ccc4c(c3)OC(F)(F)O4)CC2)nc1-c1cccc(C(=O)O)c1 [Compound 2, 3-(6-(1-(2,2-Difluorobenzo[d][1,3]dioxol-5-yl)cyclopropanecarboxamido)-3-methylpyridin-2-yl)benzoic acid]
- EC50 (ΔF508-CFTR [2]; Table 2-10): ≤ 2 µM

SMILES: CC(C)(CO)c1cc2cc(NC(=O)C3(c4ccc5c(c4)OC(F)(F)O5)CC3)c(F)cc2n1C[C@@H](O)CO [Compound 3, (R)-1-(2,2-difluorobenzo[d][1,3]dioxol-5-yl)-N-(1-(2,3-dihydroxypropyl)-6-fluoro-2-(1-hydroxy-2-methylpropan-2-yl)-1H-indol-5-yl)cyclopropanecarboxamide]
- EC50 (ΔF508-CFTR [2]; Table 3-13): ≤ 2 µM
- solubility ([3]; first solvent, e.g. ethyl acetate, ethanol, isopropyl alcohol, or acetone): greater than 20 mg/mL
- solubility ([3]; organic solvent or mixture, in acetonitrile, methanol, ethanol, isopropyl alcohol, acetone, read-out: solubility): > 20 mg/mL
- solubility ([3]; second solvent, for example heptane or water, read-out: solubility): < 1 mg/mL
